Data reported in paper PMC10326263 (Acta Pharmaceutica Sinica. B, 2023).

How the values were obtained:
[1] = system: HIV-1 mutant strain Y181C; assay: microbe, parasite or virus in culture; type: cell-based; details: Human immunodeficiency virus 1, MT4, read-out: EC50 Y181C
[2] = system: HIV-1 mutant strain Y188L; assay: microbe, parasite or virus in culture; type: cell-based; details: Human immunodeficiency virus 1, MT4, read-out: EC50 Y188L
[3] = system: HIV-1 mutant strain F227L + V106A; assay: microbe, parasite or virus in culture; type: cell-based; details: Human immunodeficiency virus 1, MT4, read-out: EC50 F227L + V106A
[4] = system: HIV-1 mutant strain E138K; assay: microbe, parasite or virus in culture; type: cell-based; details: Human immunodeficiency virus 1, MT4, read-out: EC50 E138K
[5] = Cytotoxicity in mock-infected MT-4 cells, MTT method; type: cell-based; details: human, mock-infected MT-4 cells, CC50, mock-infected MT-4 cells
[6] = system: HIV-1 mutant strain RES056 (K103N + Y181C); assay: microbe, parasite or virus in culture; type: cell-based; details: Human immunodeficiency virus 1, MT4, read-out: EC50 RES056
[7] = system: HIV-1 mutant strain K103N; assay: microbe, parasite or virus in culture; type: cell-based; details: Human immunodeficiency virus 1, MT4, read-out: EC50 K103N
[8] = system: HIV-1 mutant strain L100I; assay: microbe, parasite or virus in culture; type: cell-based; details: Human immunodeficiency virus 1, MT4, read-out: EC50 L100I
[9] = system: HIV-1 WT strain (IIIB); assay: Anti-HIV activity against WT HIV-1; details: WT HIV-1 IIIB

Compound: O=C1Nc2ccc(Cl)cc2[C@@](C#CC2CC2)(C(F)(F)F)O1 [EFV, Efavirenz, reference compound]
- EC50 [1]: 7 ± 2 nM
- EC50 [2]: 270 ± 16 nM
- EC50 [3]: 270 ± 48 nM
- EC50 [4]: 7 ± 1 nM
- CC50 at 5 days [5]: > 6340 nM
- EC50 [6]: 480 ± 190 nM
- EC50 [7]: 100 ± 19 nM
- EC50 [8]: 32 ± 6 nM

Compound: Cc1cc(C#N)cc(C)c1Oc1nc(Nc2ccc(C#N)cc2)nc(N)c1Br [ETR, Etravirine, reference compound]
- EC50 [1]: 58 ± 41 nM
- EC50 [2]: 83 ± 53 nM
- EC50 [3]: 88 ± 76 nM
- EC50 [4]: 37 ± 30 nM
- CC50 at 5 days [5]: > 4590 nM
- EC50 [6]: 150 ± 120 nM
- EC50 [7]: 15 ± 12 nM
- EC50 [8]: 32 ± 28 nM
- SI IIIB (CC50/EC50 ratio) [9]: >900

Compound: Cc1ccnc2c1NC(=O)c1cccnc1N2C1CC1 [NVP, Nevirapine, reference compound]
- EC50 [1]: > 9520 nM
- EC50 [2]: > 9520 nM
- EC50 [3]: > 9520 nM
- EC50 [4]: 95 ± 31 nM
- CC50 at 5 days [5]: > 15000 nM
- EC50 [6]: > 9520 nM
- EC50 [7]: 5330 ± 1070 nM
- EC50 [8]: 1260 ± 600 nM
- SI IIIB (CC50/EC50 ratio) [9]: >114

Compound: Cc1ccc(S(=O)(=O)NCCNC(=O)c2[nH]c3ccc(Cl)cc3c2S(=O)(=O)c2cc(C)cc(C)c2)cc1 [R1L2, 5-Chloro-3-((3,5-dimethylphenyl)sulfonyl)-N-(2-((4-methylphenyl)sulfonamido)ethyl)-1H-indole-2-carboxamide]
- EC50 [1]: 610 ± 130 nM
- EC50 [2]: 6420 ± 1400 nM
- EC50 [3]: 1750 ± 200 nM
- EC50 [4]: 860 ± 360 nM
- CC50 at 5 days [5]: 168000 ± 17200 nM
- EC50 [6]: 3380 ± 890 nM
- EC50 [7]: 410 ± 110 nM
- EC50 [8]: 680 ± 390 nM
- SI IIIB (CC50/EC50 ratio) [9]: 3787

Compound: Cc1ccc(S(=O)(=O)NCCCNC(=O)c2[nH]c3ccc(Cl)cc3c2S(=O)(=O)c2cc(C)cc(C)c2)cc1 [R1L3, 5-Chloro-3-((3,5-dimethylphenyl)sulfonyl)-N-(3-((4-methylphenyl)sulfonamido)propyl)-1H-indole-2-carboxamide]
- EC50 [1]: 1190 ± 300 nM
- EC50 [2]: 7140 ± 1400 nM
- EC50 [3]: 1260 ± 380 nM
- EC50 [4]: 210 ± 140 nM
- CC50 at 5 days [5]: 168000 ± 23500 nM
- EC50 [6]: 5970 ± 650 nM
- EC50 [7]: 730 ± 140 nM
- EC50 [8]: 540 ± 420 nM
- SI IIIB (CC50/EC50 ratio) [9]: 4586

Compound: Cc1ccc(S(=O)(=O)NCCCCNC(=O)c2[nH]c3ccc(Cl)cc3c2S(=O)(=O)c2cc(C)cc(C)c2)cc1 [R1L4, 5-Chloro-3-((3,5-dimethylphenyl)sulfonyl)-N-(4-((4-methylphenyl)sulfonamido)butyl)-1H-indole-2-carboxamide]
- EC50 [1]: 310 ± 68 nM
- EC50 [2]: 1520 ± 270 nM
- EC50 [3]: 310 ± 34 nM
- EC50 [4]: 130 ± 85 nM
- CC50 at 5 days [5]: 103000 ± 59800 nM
- EC50 [6]: > 103000 nM
- EC50 [7]: 310 ± 68 nM
- EC50 [8]: 160 ± 85 nM
- SI IIIB (CC50/EC50 ratio) [9]: 3232

Compound: Cc1ccc(S(=O)(=O)NCCCCCNC(=O)c2[nH]c3ccc(Cl)cc3c2S(=O)(=O)c2cc(C)cc(C)c2)cc1 [R1L5, 5-Chloro-3-((3,5-dimethylphenyl)sulfonyl)-N-(5-((4-methylphenyl)sulfonamido)pentyl)-1H-indole-2-carboxamide]
- EC50 [1]: 230 ± 17 nM
- EC50 [2]: 2530 ± 180 nM
- EC50 [3]: 380 ± 130 nM
- EC50 [4]: 180 ± 17 nM
- CC50 at 5 days [5]: 113000 ± 3740 nM
- EC50 [6]: > 113000 nM
- EC50 [7]: 630 ± 17 nM
- EC50 [8]: 170 ± 17 nM
- SI IIIB (CC50/EC50 ratio) [9]: 4159

Compound: COc1ccc(S(=O)(=O)NCCNC(=O)c2[nH]c3ccc(Cl)cc3c2S(=O)(=O)c2cc(C)cc(C)c2)cc1 [R2L2, 5-Chloro-3-((3,5-dimethylphenyl)sulfonyl)-N-(2-((4-methoxyphenyl)sulfonamido)ethyl)-1H-indole-2-carboxamide]
- EC50 [1]: 850 ± 35 nM
- EC50 [2]: > 106000 nM
- EC50 [3]: 1580 ± 450 nM
- EC50 [4]: 1110 ± 170 nM
- CC50 at 5 days [5]: 106000 ± 23000 nM
- EC50 [6]: > 106000 nM
- EC50 [7]: 900 ± 380 nM
- EC50 [8]: 660 ± 230 nM
- SI IIIB (CC50/EC50 ratio) [9]: 1233

Compound: COc1ccc(S(=O)(=O)NCCCNC(=O)c2[nH]c3ccc(Cl)cc3c2S(=O)(=O)c2cc(C)cc(C)c2)cc1 [R2L3, 5-Chloro-3-((3,5-dimethylphenyl)sulfonyl)-N-(3-((4-methoxyphenyl)sulfonamido)propyl)-1H-indole-2-carboxamide]
- EC50 [1]: 830 ± 68 nM
- EC50 [2]: 5980 ± 310 nM
- EC50 [3]: 970 ± 51 nM
- EC50 [4]: 250 nM
- CC50 at 5 days [5]: 163000 ± 15300 nM
- EC50 [6]: > 163000 nM
- EC50 [7]: 660 ± 85 nM
- EC50 [8]: 320 nM
- SI IIIB (CC50/EC50 ratio) [9]: 4354

Compound: COc1ccc(S(=O)(=O)NCCCCNC(=O)c2[nH]c3ccc(Cl)cc3c2S(=O)(=O)c2cc(C)cc(C)c2)cc1 [R2L4, 5-Chloro-3-((3,5-dimethylphenyl)sulfonyl)-N-(4-((4-methoxyphenyl)sulfonamido)butyl)-1H-indole-2-carboxamide]
- EC50 [1]: 330 nM
- EC50 [2]: 800 ± 83 nM
- EC50 [3]: 280 ± 33 nM
- EC50 [4]: 250 ± 50 nM
- CC50 at 5 days [5]: 22500 ± 9140 nM
- EC50 [6]: > 22500 nM
- EC50 [7]: 330 ± 33 nM
- EC50 [8]: 180 nM
- SI IIIB (CC50/EC50 ratio) [9]: 615

Compound: COc1ccc(S(=O)(=O)NCCCCCNC(=O)c2[nH]c3ccc(Cl)cc3c2S(=O)(=O)c2cc(C)cc(C)c2)cc1 [R2L5, 5-Chloro-3-((3,5-dimethylphenyl)sulfonyl)-N-(5-((4-methoxyphenyl)sulfonamido)pentyl)-1H-indole-2-carboxamide]
- EC50 [1]: 190 ± 16 nM
- EC50 [2]: 1280 ± 440 nM
- EC50 [3]: 280 ± 65 nM
- EC50 [4]: 130 ± 49 nM
- CC50 at 5 days [5]: 110000 ± 7890 nM
- EC50 [6]: > 110000 nM
- EC50 [7]: 570 nM
- EC50 [8]: 94 ± 47 nM
- SI IIIB (CC50/EC50 ratio) [9]: 4772

Compound: Cc1cc(C)cc(S(=O)(=O)c2c(C(=O)NCCNS(=O)(=O)c3ccc([N+](=O)[O-])cc3)[nH]c3ccc(Cl)cc23)c1 [R3L2, 5-Chloro-3-((3,5-dimethylphenyl)sulfonyl)-N-(2-((4-nitrophenyl)sulfonamido)ethyl)-1H-indole-2-carboxamide]
- EC50 [1]: 1000 ± 170 nM
- EC50 [2]: > 212000 nM
- EC50 [3]: 6170 ± 1140 nM
- EC50 [4]: 1150 nM
- CC50 at 5 days [5]: > 212000 nM
- EC50 [6]: > 212000 nM
- EC50 [7]: 590 ± 100 nM
- EC50 [8]: 950 ± 85 nM
- SI IIIB (CC50/EC50 ratio) [9]: >1764

Compound: Cc1cc(C)cc(S(=O)(=O)c2c(C(=O)NCCCNS(=O)(=O)c3ccc([N+](=O)[O-])cc3)[nH]c3ccc(Cl)cc23)c1 [R3L3, 5-Chloro-3-((3,5-dimethylphenyl)sulfonyl)-N-(3-((4-nitrophenyl)sulfonamido)propyl)-1H-indole-2-carboxamide]
- EC50 [1]: 1030 ± 50 nM
- EC50 [2]: 3290 ± 66 nM
- EC50 [3]: 1770 ± 33 nM
- EC50 [4]: 310 ± 50 nM
- CC50 at 5 days [5]: 23000 ± 600 nM
- EC50 [6]: 4920 ± 1270 nM
- EC50 [7]: 730 ± 120 nM
- EC50 [8]: 350 ± 17 nM
- SI IIIB (CC50/EC50 ratio) [9]: 464

Compound: Cc1cc(C)cc(S(=O)(=O)c2c(C(=O)NCCCCNS(=O)(=O)c3ccc([N+](=O)[O-])cc3)[nH]c3ccc(Cl)cc23)c1 [R3L4, 5-Chloro-3-((3,5-dimethylphenyl)sulfonyl)-N-(4-((4-nitrophenyl)sulfonamido)butyl)-1H-indole-2-carboxamide]
- EC50 [1]: 400 ± 110 nM
- EC50 [2]: 870 ± 65 nM
- EC50 [3]: 360 ± 32 nM
- EC50 [4]: 230 ± 32 nM
- CC50 at 5 days [5]: 104000 ± 31400 nM
- EC50 [6]: 1880 ± 680 nM
- EC50 [7]: 500 ± 160 nM
- EC50 [8]: 130 ± 18 nM
- SI IIIB (CC50/EC50 ratio) [9]: 3809

Compound: Cc1cc(C)cc(S(=O)(=O)c2c(C(=O)NCCCCCNS(=O)(=O)c3ccc([N+](=O)[O-])cc3)[nH]c3ccc(Cl)cc23)c1 [R3L5, 5-Chloro-3-((3,5-dimethylphenyl)sulfonyl)-N-(5-((4-nitrophenyl)sulfonamido)pentyl)-1H-indole-2-carboxamide]
- EC50 [1]: 300 nM
- EC50 [2]: 2470 ± 160 nM
- EC50 [3]: 540 ± 140 nM
- EC50 [4]: 250 ± 32 nM
- CC50 at 5 days [5]: > 198000 nM
- EC50 [6]: 25140 ± 47 nM
- EC50 [7]: 900 ± 79 nM
- EC50 [8]: 130 ± 6.3 nM
- SI IIIB (CC50/EC50 ratio) [9]: >7548
